Measured values from patent US20240043417A1, “COMPOUNDS FOR THE TREATMENT OF SARS” (Purdue Research Foundation, priority 2020, published 2024).
Read-outs that look alike come from different tables or passages of the source.

Tests used:
SARS-CoV-2 3CLpro = SARS-CoV-2 3CLpro (Severe acute respiratory syndrome coronavirus 2 (2019-nCoV) (SARS-CoV-2), UniProt P0DTD1); experiment: SARS-CoV-2 3CLpro enzyme inhibition assay; type: biochemical
SARS-CoV-2 = experiment: microbe, parasite or virus in culture; type: cell-based; conditions: Severe acute respiratory syndrome coronavirus 2; read-out: Antiviral EC50 Data
[1] = SARS-CoV-2 3CLpro, 10 minutes pre-incubation of enzyme with compound, read-out: Enzyme IC50 Data

SMILES	IC50 (SARS-CoV-2 3CLpro) [µM]	EC50 (SARS-CoV-2) [µM]	IC50 (SARS-CoV-2 3CLpro; [1]) [µM]	IC50 (SARS-CoV-2 3CLpro; read-out: Enzyme IC50 Data, SARS-CoV-2 3CLpro, 10 minutes pre-incubation of enzyme with compound) [µM]
CCCO[C@@H]1C[C@@H](C(=O)N[C@@H](C[C@@H]2CCNC2=O)C(=O)c2nc3ccccc3s2)N(C(=O)[C@@H](NC(=O)NC(C)(C)C)C(C)(C)C)C1	0.1 to 5	50 to 100		
CCCO[C@@H]1C[C@@H](C(=O)N[C@@H](CC2CCNC2=O)C(=O)c2nc3ccccc3s2)N(C(=O)C(NC(=O)NC(C)(C)C)C(C)C)C1 (some centres unmarked)	0.1 to 5	50 to 100		
CCCN(CCC)[C@@H]1C[C@@H](C(=O)N[C@@H](C[C@H]2CCNC2=O)C(=O)c2nc3ccccc3s2)N(C(=O)[C@@H](NC(=O)OC(C)(C)C)C(C)(C)C)C1	0.1 to 5	5 to 50		
CCCC(=O)N[C@@H]1C[C@@H](C(=O)N[C@@H](C[C@H]2CCNC2=O)C(=O)c2nc3ccccc3s2)N(C(=O)[C@@H](NC(=O)OC(C)(C)C)C(C)(C)C)C1	0.1 to 5	> 100		
CC(C)(C)NC(=O)N[C@H](C(=O)N1C[C@H]2[C@@H]([C@H]1C(=O)N[C@@H](C[C@@H]1CCNC1=O)C(=O)c1nc3ccccc3s1)C2(C)C)C(C)(C)C	50 to 100	5 to 50		
CC(C)(C)NC(=O)N[C@H](C(=O)N1C[C@H]2[C@@H]([C@H]1C(=O)N[C@@H](C[C@@H]1CCNC1=O)C(=O)C(=O)NCc1ccccc1)C2(C)C)C(C)(C)C	50 to 100	> 100		
CC(C)(C)NC(=O)N[C@H](C(=O)N1C[C@H]2[C@@H]([C@H]1C(=O)N[C@@H](C[C@@H]1CCNC1=O)C(=O)c1nc(-c3ccccc3)cs1)C2(C)C)C(C)(C)C	5 to 50	5 to 50		
CC(C)(C)NC(=O)N[C@H](C(=O)N1C[C@H]2[C@@H]([C@H]1C(=O)N[C@@H](C[C@@H]1CCNC1=O)C(=O)C(N)=O)C2(C)C)C(C)(C)C		> 100		
CCCO[C@@H]1C[C@@H](C(=O)N[C@@H](C[C@@H]2CCNC2=O)C(=O)c2nc(-c3ccccc3)cs2)N(C(=O)[C@@H](NC(=O)NC(C)(C)C)C(C)(C)C)C1		5 to 50	> 100	
CCCN(CCC)[C@@H]1C[C@@H](C(=O)N[C@@H](C[C@H]2CCNC2=O)C(=O)c2nc3ccccc3s2)N(C(=O)[C@@H](NC(=O)NC(C)(C)C)C(C)(C)C)C1		5 to 50	> 100	
CCCC(=O)N[C@@H]1C[C@@H](C(=O)N[C@@H](C[C@H]2CCNC2=O)C(=O)c2nc3ccccc3s2)N(C(=O)[C@@H](NC(=O)NC(C)(C)C)C(C)(C)C)C1	0.1 to 5	> 100		
CC(C)(C)NC(=O)N[C@H](C(=O)N1C[C@H](N2CCCC2)C[C@H]1C(=O)N[C@@H](C[C@H]1CCNC1=O)C(=O)c1nc2ccccc2s1)C(C)(C)C	5 to 50	> 100		
CC(C)(C)NC(=O)N[C@H](C(=O)N1C[C@H](N2CCOCC2)C[C@H]1C(=O)N[C@@H](C[C@H]1CCNC1=O)C(=O)c1nc2ccccc2s1)C(C)(C)C			0.1 to 5	
CCCN(CCC)[C@@H]1C[C@@H](C(=O)N[C@@H](C[C@H]2CCNC2=O)C(=O)c2nc(-c3ccccc3)cs2)N(C(=O)[C@@H](NC(=O)NC(C)(C)C)C(C)(C)C)C1			0.1 to 5	
CC(C)(C)[C@H](NC(=O)NCc1ccncc1)C(=O)N1C[C@H]2[C@@H]([C@H]1C(=O)N[C@@H](C[C@@H]1CCNC1=O)C(=O)c1nc(-c3ccccc3)cs1)C2(C)C			0.1 to 5	
CN(C)[C@@H]1C[C@@H](C(=O)N[C@@H](C[C@@H]2CCNC2=O)C(=O)c2nc(-c3ccccc3)cs2)N(C(=O)[C@@H](NC(=O)NC(C)(C)C)C(C)(C)C)C1			0.1 to 5	
CCN(CC)[C@@H]1C[C@@H](C(=O)N[C@@H](C[C@@H]2CCNC2=O)C(=O)c2nc(-c3ccccc3)cs2)N(C(=O)[C@@H](NC(=O)NC(C)(C)C)C(C)(C)C)C1			0.1 to 5	
CC(C)(C)NC(=O)N[C@H](C(=O)N1C[C@H]2[C@@H]([C@H]1C(=O)N[C@@H](C[C@@H]1CCNC1=O)C(=O)c1nc(-c3ccccc3)co1)C2(C)C)C(C)(C)C			50 to 100	
CC(=O)OC(C#N)[C@H](CC1CCCNC1=O)NC(=O)[C@@H]1[C@@H]2[C@H](CN1C(=O)C(NC(=O)NC(C)(C)C)C(C)(C)C)C2(C)C (some centres unmarked)		> 100		
CCCN(CCC)[C@@H]1C[C@@H](C(=O)NC(C#N)C[C@@H]2CCNC2=O)N(C(=O)[C@@H](NC(=O)C(F)(F)F)C(C)(C)C)C1 (some centres unmarked)	> 100	> 100		
CCCN(CCC)[C@@H]1C[C@@H](C(=O)NC(C#N)C[C@@H]2CCNC2=O)N(C(=O)[C@@H](NC(=O)OC(C)(C)C)C(C)(C)C)C1 (some centres unmarked)		5 to 50	> 100	
CCCO[C@@H]1C[C@@H](C(=O)NC(C#N)C[C@@H]2CCNC2=O)N(C(=O)[C@@H](NC(=O)NC(C)(C)C)C(C)(C)C)C1 (some centres unmarked)	50 to 100	> 100		
CC(C)(C)NC(=O)N[C@H](C(=O)N1C[C@H]2[C@@H]([C@H]1C(=O)NC(C#N)C[C@@H]1CCNC1=O)C2(C)C)C(C)(C)C (some centres unmarked)		> 100		
CC(C)(C)[C@H](NC(=O)c1ccccc1)C(=O)N1C[C@H]2[C@@H]([C@H]1C(=O)N[C@H](C#N)C[C@@H]1CCNC1=O)C2(C)C		50 to 100		
CCCO[C@@H]1C[C@@H](C(=O)N[C@@H](C[C@@H]2CCNC2=O)C(=O)c2nc3ccccc3s2)N(C(=O)[C@@H](NC(=O)OC(C)(C)C)C(C)(C)C)C1 [drawing 99]	0.1 to 5	0.1 to 5		
CCCO[C@@H]1C[C@@H](C(=O)N[C@@H](C[C@@H]2CCNC2=O)C(=O)c2nc3ccccc3s2)N(C(=O)[C@@H](NC(=O)OC(C)(C)C)C(C)(C)C)C1 [drawing 100]				0.1 to 5
